Laboratory results: patent US10377753B2, “Substituted 4-azaindoles and their use as GluN2B receptor modulators” (Janssen Pharmaceutica NV, priority 2015, dated 2019)
Structures can show the parent of a compound that is named as a salt.

Target: cloned human NR1/NR2B ion channels (Homo sapiens (Human), UniProt Q05586+Q13224)
Assay: HNR2BC: effects of test articles on cloned human NR1/NR2B ion channels expressed in mammalian cells (FLIPR calcium flux)
Assay type: cell-based
Conditions: cloned human NR1/NR2B, Table 5
Method in brief: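 In a stable Tet-On-induced cell line expressing human GluN1/GluN2B, Calcium 5-loaded cells were preincubated 5 min with compound, then stimulated 5 min with glutamate at ~EC80 plus 10 μM glycine, in pH 7.4 HEPES buffer. FLIPR calcium fluorescence was normalized to control wells.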

Sequence of cloned human NR1/NR2B ion channels (Q13224 27-1484, other chains not shown): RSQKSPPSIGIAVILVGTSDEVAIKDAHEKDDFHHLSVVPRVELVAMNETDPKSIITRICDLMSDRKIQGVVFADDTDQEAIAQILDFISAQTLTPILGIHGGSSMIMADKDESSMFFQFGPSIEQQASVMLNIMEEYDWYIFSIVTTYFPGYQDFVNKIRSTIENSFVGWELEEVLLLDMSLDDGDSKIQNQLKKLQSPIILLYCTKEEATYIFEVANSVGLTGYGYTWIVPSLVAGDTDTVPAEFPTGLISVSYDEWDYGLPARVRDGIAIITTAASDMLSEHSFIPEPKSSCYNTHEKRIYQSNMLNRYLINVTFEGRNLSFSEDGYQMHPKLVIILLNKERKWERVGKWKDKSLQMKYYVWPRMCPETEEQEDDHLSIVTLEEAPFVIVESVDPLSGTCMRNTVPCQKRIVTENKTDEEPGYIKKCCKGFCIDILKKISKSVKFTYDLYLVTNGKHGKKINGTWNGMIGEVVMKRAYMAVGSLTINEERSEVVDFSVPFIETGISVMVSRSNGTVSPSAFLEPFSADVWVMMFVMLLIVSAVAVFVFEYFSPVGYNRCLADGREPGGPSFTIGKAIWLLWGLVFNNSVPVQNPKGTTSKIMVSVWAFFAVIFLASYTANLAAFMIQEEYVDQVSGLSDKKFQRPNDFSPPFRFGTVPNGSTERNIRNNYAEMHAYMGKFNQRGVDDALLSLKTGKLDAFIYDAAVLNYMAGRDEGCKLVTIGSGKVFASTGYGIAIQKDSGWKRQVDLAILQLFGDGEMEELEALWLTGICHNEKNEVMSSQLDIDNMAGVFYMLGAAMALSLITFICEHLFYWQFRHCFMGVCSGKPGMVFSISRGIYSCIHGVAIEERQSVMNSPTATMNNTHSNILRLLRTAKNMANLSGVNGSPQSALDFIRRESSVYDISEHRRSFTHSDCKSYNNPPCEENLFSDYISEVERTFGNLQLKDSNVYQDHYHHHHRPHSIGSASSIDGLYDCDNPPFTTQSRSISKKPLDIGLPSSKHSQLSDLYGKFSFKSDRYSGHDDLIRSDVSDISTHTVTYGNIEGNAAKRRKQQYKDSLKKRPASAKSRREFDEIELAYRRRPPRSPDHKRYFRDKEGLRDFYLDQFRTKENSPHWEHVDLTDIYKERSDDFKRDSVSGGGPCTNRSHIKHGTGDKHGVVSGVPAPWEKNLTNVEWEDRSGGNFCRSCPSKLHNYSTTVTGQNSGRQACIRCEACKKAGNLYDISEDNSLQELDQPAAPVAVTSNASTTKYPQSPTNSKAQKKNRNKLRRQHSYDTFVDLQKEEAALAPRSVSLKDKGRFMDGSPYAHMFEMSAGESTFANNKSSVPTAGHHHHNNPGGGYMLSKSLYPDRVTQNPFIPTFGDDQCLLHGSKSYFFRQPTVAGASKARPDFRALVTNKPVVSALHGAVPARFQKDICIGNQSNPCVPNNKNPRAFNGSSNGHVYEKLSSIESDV

| IC50 | pIC50 | SMILES |
| --- | --- | --- |
| 0.398 µM |  | Cc1cccc(-c2cnc3ccn(CC(=O)NC4CC4)c3c2)c1C [Example 154, N-Cyclopropyl-2-[6-(2,3-dimethylphenyl)pyrrolo[3,2-b]pyridin-1-yl]acetamide trifluoroacetate salt] |
| 0.251 µM |  | Cc1cccc(-c2cnc3ccn(CC(=O)NC4CC4)c3c2)c1 [Example 155, N-Cyclopropyl-2-[6-(m-tolyl)pyrrolo[3,2-b]pyridin-1-yl]acetamide trifluoroacetate salt] |
| 0.2 µM |  | O=C(Cn1ccc2ncc(-c3ccc(Cl)c(Cl)c3)cc21)NC1CC1 [Example 156, N-Cyclopropyl-2-[6-(3,4-dichlorophenyl)pyrrolo[3,2-b]pyridin-1-yl]acetamide trifluoroacetate salt] |
| 0.251 µM |  | Cc1c(-c2cnc3ccn(CC(=O)NC4CC4)c3c2)cccc1C(F)(F)F [Example 157, N-Cyclopropyl-2-[6-[2-methyl-3-(trifluoromethyl)phenyl]pyrrolo[3,2-b]pyridin-1-yl]acetamide trifluoroacetate salt] |
| 0.251 µM |  | Cc1c(F)ccc(-c2cnc3ccn(CC(=O)NC4CC4)c3c2)c1C [Example 159, N-Cyclopropyl-2-[6-(4-fluoro-2,3-dimethyl-phenyl)pyrrolo[3,2-b]pyridin-1-yl]acetamide trifluoroacetate salt] |
| 0.2 µM |  | Cc1ccccc1-c1cnc2ccn(CC(=O)NC3CC3)c2c1 [Example 160, N-Cyclopropyl-2-[6-(o-tolyl)pyrrolo[3,2-b]pyridin-1-yl]acetamide] |
| 0.2 µM |  | Cc1cc(F)ccc1-c1cnc2ccn(CC(=O)NC3CC3)c2c1 [Example 161, N-Cyclopropyl-2-[6-(4-fluoro-2-methyl-phenyl)pyrrolo[3,2-b]pyridin-1-yl]acetamide trifluoroacetate salt] |
| 0.0794 µM |  | Cc1cc(F)ccc1-c1cnc2ccn(CC(=O)N3CCC3)c2c1 [Example 163, 1-(Azetidin-1-yl)-2-[6-(4-fluoro-2-methyl-phenyl)pyrrolo[3,2-b]pyridin-1-yl]ethanone trifluoroacetate salt] |
| 0.251 µM |  | O=C(Cn1ccc2ncc(-c3ccc(F)cc3)cc21)NC1CC1 [Example 168, N-Cyclopropyl-2-[6-(4-fluorophenyl)pyrrolo[3,2-b]pyridin-1-yl]acetamide] |

More lines, now with the values behind:

| SMILES | IC50 | pIC50 |
| --- | --- | --- |
| Cc1cc(-c2cnc3ccn(CC(=O)C(C)(C)C)c3c2)ccc1F [Example 141, 1-[6-(4-Fluoro-3-methyl-phenyl)pyrrolo[3,2-b]pyridin-1-yl]-3,3-dimethyl-butan-2-one] | 0.398 µM |  |
| CC(C)(C)C(=O)Cn1ccc2ncc(-c3cc(F)cc(F)c3)cc21 [Example 142, 1-[6-(3,5-Difluorophenyl)pyrrolo[3,2-b]pyridin-1-yl]-3,3-dimethyl-butan-2-one] | 0.501 µM |  |
| Cc1csc(-c2cnc3ccn(CC(=O)C(C)(C)C)c3c2)c1 [Example 143, 3,3-Dimethyl-1-[6-(4-methyl-2-thienyl)pyrrolo[3,2-b]pyridin-1-yl]butan-2-one] | 0.794 µM |  |
| CC(C)(C)C(=O)Cn1ccc2ncc(-c3cccc(C(F)F)c3)cc21 [Example 144, 1-[6-[3-(Difluoromethyl)phenyl]pyrrolo[3,2-b]pyridin-1-yl]-3,3-dimethyl-butan-2-one] | 2 µM |  |
| CCc1cccc(-c2cnc3ccn(CC(=O)C(C)(C)C)c3c2)c1 [Example 145, 1-[6-(3-Ethylphenyl)pyrrolo[3,2-b]pyridin-1-yl]-3,3-dimethyl-butan-2-one] | 0.501 µM |  |
| Cc1cc(-c2cnc3c(Cl)cn(CC(=O)N(C)C)c3c2)ccc1F [Example 146, 2-[3-Chloro-6-(4-fluoro-3-methyl-phenyl)pyrrolo[3,2-b]pyridin-1-yl]-N,N-dimethyl-acetamide] | 1 µM |  |
| CN(C)C(=O)Cn1cc(Cl)c2ncc(-c3ccc(F)c(F)c3)cc21 [Example 147, 2-[3-Chloro-6-(3,4-difluorophenyl)pyrrolo[3,2-b]pyridin-1-yl]-N,N-dimethyl-acetamide] | 0.0501 µM |  |
| CN(C)C(=O)Cn1cc(Cl)c2ncc(-c3cc(F)cc(F)c3)cc21 [Example 148, 2-[3-Chloro-6-(3,5-difluorophenyl)pyrrolo[3,2-b]pyridin-1-yl]-N,N-dimethyl-acetamide] | 0.0501 µM |  |
| Cc1csc(-c2cnc3c(Cl)cn(CC(=O)N(C)C)c3c2)c1 [Example 149, 2-[3-Chloro-6-(4-methyl-2-thienyl)pyrrolo[3,2-b]pyridin-1-yl]-N,N-dimethyl-acetamide] | 0.0501 µM |  |
| CN(C)C(=O)Cn1cc(Cl)c2ncc(-c3cccc(C(F)F)c3)cc21 [Example 150, 2-[3-Chloro-6-[3-(difluoromethyl)phenyl]pyrrolo[3,2-b]pyridin-1-yl]-N,N-dimethyl-acetamide] |  | 7.3 |
| CCc1cccc(-c2cnc3c(Cl)cn(CC(=O)N(C)C)c3c2)c1 [Example 151, 2-[3-Chloro-6-(3-ethylphenyl)pyrrolo[3,2-b]pyridin-1-yl]-N,N-dimethyl-acetamide] | 0.0794 µM |  |
| CN(C)C(=O)Cn1cc(Cl)c2ncc(-c3cc(F)c(F)c(F)c3)cc21 [Example 152, 2-[3-Chloro-6-(3,4,5-trifluorophenyl)pyrrolo[3,2-b]pyridin-1-yl]-N,N-dimethyl-acetamide] | 0.1 µM |  |
| Cc1csc(-c2cnc3ccn(CC(=O)NC4CC4)c3c2)c1 [Example 153, N-Cyclopropyl-2-[6-(4-methyl-2-thienyl)pyrrolo[3,2-b]pyridin-1-yl]acetamide trifluoroacetate salt] | 0.0631 µM |  |
| O=C(Cn1ccc2ncc(-c3ccccc3)cc21)NC1CC1 [Example 158, N-Cyclopropyl-2-(6-phenylpyrrolo[3,2-b]pyridin-1-yl)acetamide trifluoroacetate salt] | 0.631 µM |  |
| Cc1ccccc1-c1cnc2ccn(CC(=O)N3CCC3)c2c1 [Example 162, 1-(Azetidin-1-yl)-2-[6-(o-tolyl)pyrrolo[3,2-b]pyridin-1-yl]ethanone trifluoroacetate salt] | 0.1 µM |  |
| Cc1c(F)ccc(-c2cnc3ccn(CC(=O)N4CCC4)c3c2)c1C [Example 164, 1-(Azetidin-1-yl)-2-[6-(4-fluoro-2,3-dimethyl-phenyl)pyrrolo[3,2-b]pyridin-1-yl]ethanone trifluoroacetate salt] | 0.0631 µM |  |
| Cc1cccc(-c2cnc3ccn(CC(=O)N4CCC4)c3c2)c1C [Example 165, 1-(Azetidin-1-yl)-2-[6-(2,3-dimethylphenyl)pyrrolo[3,2-b]pyridin-1-yl]ethanone trifluoroacetate salt] | 0.0631 µM |  |
| Cc1c(-c2cnc3ccn(CC(=O)N4CCC4)c3c2)cccc1C(F)(F)F [Example 167, 1-(Azetidin-1-yl)-2-[6-[2-methyl-3-(trifluoromethyl)phenyl]pyrrolo[3,2-b]pyridin-1-yl]ethanone trifluoroacetate salt] | 0.0398 µM |  |
| Cc1cc(-c2cnc3c(C)cn(CC(=O)N4CCC4)c3c2)ccc1F [Example 169, 1-(Azetidin-1-yl)-2-[6-(4-fluoro-3-methyl-phenyl)-3-methyl-pyrrolo[3,2-b]pyridin-1-yl]ethanone trifluoroacetate salt] | 0.2 µM |  |
| CCCCn1ccc2ncc(-c3ccc(F)c(C)c3)cc21 [Example 170, 1-Butyl-6-(4-fluoro-3-methyl-phenyl)pyrrolo[3,2-b]pyridine trifluoroacetate salt] | 0.316 µM |  |
| Cc1cc(-c2cnc3ccn(CCC(C)C)c3c2)ccc1F [Example 171, 6-(4-Fluoro-3-methyl-phenyl)-1-isopentyl-pyrrolo[3,2-b]pyridine trifluoroacetate salt] | 0.2 µM |  |
